The source of these data is patent US20180230166A1 (Merck Sharp & Dohme Corp., priority 2015, published 2018).

For series [1] the following is noted: torcetrapib and atorvastatin concomitantly, compared with atorvastatin alone; cited from earlier work.
For series [2] the following is noted: cited from earlier work.
For series [3], the target named is T1, endogenous CETP from serum (Homo sapiens, UniProt P11597).
T1 construct: yielding a concentration of approximately 15 nM endogenous CETP in the assay; from tissue; host or cells: human serum (95% of the assay volume)
T1 sequence (P11597 18-493): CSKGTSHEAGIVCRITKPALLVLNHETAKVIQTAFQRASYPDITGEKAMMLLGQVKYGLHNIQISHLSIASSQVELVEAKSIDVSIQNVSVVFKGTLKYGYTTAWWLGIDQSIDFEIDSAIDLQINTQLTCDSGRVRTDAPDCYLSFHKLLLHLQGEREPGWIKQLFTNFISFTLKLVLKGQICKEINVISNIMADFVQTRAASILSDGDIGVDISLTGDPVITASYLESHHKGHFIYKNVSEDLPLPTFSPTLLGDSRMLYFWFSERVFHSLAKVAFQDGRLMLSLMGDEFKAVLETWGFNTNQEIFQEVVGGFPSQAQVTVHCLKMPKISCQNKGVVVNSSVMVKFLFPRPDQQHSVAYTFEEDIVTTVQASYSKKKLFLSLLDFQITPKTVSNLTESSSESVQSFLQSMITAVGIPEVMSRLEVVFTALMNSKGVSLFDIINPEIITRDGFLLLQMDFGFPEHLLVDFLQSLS
Briefly: RTA assay in 95% human serum (95% RTA), CETP-catalyzed CE and TG transfer. The class given is biochemical. The following applies: RTA assay in 95% human serum; read-out: IC50. On the procedure:
Reagents and sources are: [3H] cholesteryl oleate (GE #TRK.886), [3H] Triolein (Perkin-Elmer NET-431), Butylated hydroxyl toluene (Aldrich, #D4740-4), DOPC (Sigma, #P6354), Sodium Bromide (Fisher scientific #S255-500), PEG 8000 (Fisher, #BP233-1), and human HDL (Intracel Corp #RP-036).
Both assays measure the transfer of [3H] cholesteryl oleate or [3H] triolein from exogenous LDL to HDL.
Radiolabeled donor particles are generated by first combining 100 μl of 200 μM butylated hydroxyl toluene in CHCl3, 216 μL of 21.57 mM DOPC in EtOH, and either 500 μCi [3H]-triolein (Perkin Elmer #NET-431) or 500 μCi [3H]-cholesteryl oleate (GE #TRK886) in a glass tube. Reagents are mixed, dried under nitrogen, and then resuspended in 2 mL of 50 mM Tris, 27 μM EDTA at pH 7.4. After a brief vortex, the solution is sonicated until clear and mixed with 20 mL of fresh human serum. The mixture is incubated overnight at 37° C. The [3H] labeled LDL substrate is separated at 1.063 g/ml density by sequential ultracentrifugal flotation in NaBr according to the method of Havel, Eder, et al., 1955, and Chapman, Goldstein, et al., 1981. Once isolated the particles are dialyzed 3× in CETP buffer (50 mM Tris, pH 7.4, 100 mM NaCl, 1 mM EDTA). Human HDL is purchased from Intracel and used as the acceptor particles.
Transfer assays are performed in a 96-well v-bottom polypropylene plate. […] 1 μL of each test compound diluted in DMSO is added to 47 μL of assay cocktail per well and incubated at 37° C. for 1 hour. To initiate the transfer reaction, 2 μL radiolabeled LDL is added. After an additional 60 min of incubation at 37° C., the transfer action is terminated by precipitation of LDL with an equal volume of 20% W/V PEG 8000. The plates are centrifuged at 2000 rpm for 30 minutes at 4° C. A 40 μL aliquot of the HDL-containing supernatant is transferred to a Packard Optiplate™ with 200 μL of MicroScint™ 20. After mixing, plates are counted by liquid scintillation. Counts present in the supernatant for blanks (wells containing only HDL acceptor, CETP buffer and DMSO) are subtracted from those containing test compounds and used to correct for non-specific transfer.
For the transfer assay using endogenous CETP from serum (95% RTA), the same procedure is used except that human serum is added such that a final concentration of serum of 95% of the total assay volume is achieved, yielding a concentration of approximately 15 nM endogenous CETP in the assay. This is then combined with HDL and CETP buffer and the reaction proceeds as above and is terminated as described.
Comparison of the counts of samples with inhibitors to an uninhibited (DMSO only) positive control yield a percent inhibition. A plot of percent inhibition vs. log of inhibitor concentration, fit to a Sigmoidal 4 parameter equation is used to calculate IC50.
Starting materials are commercially available or are made using known procedures or as shown below. The examples may be synthesized using the general schemes provided below. The data reported for the examples below were obtained using the RTA assay in 95% human serum. […] When compounds of Formula I are mentioned herein, such compounds include compounds defined generically by Formula I and also the specific examples disclosed herein.

For series [4] the following is noted: Phase III outcomes trial, cited from earlier work.
The mark [5] stands for this setting: patients on anacetrapib with baseline statin therapy, compared with patients treated with just a statin.

As usually defined, the IC50 is the point on the concentration scale where inhibition reaches its midpoint.

The structures appear in SMILES notation.

In the case of `CCOC(=O)N1c2ccc(C(F)(F)F)cc2[C@@H](N(Cc2cc(C(F)(F)F)cc(C(F)(F)F)c2)C(=O)OC)C[C@H]1CC` [torcetrapib], the incidence of mortality result in series [1] was “higher incidence of mortality”.

On to `COc1cc(F)c(C(C)C)cc1-c1ccc(C(F)(F)F)cc1CN1C(=O)O[C@H](c2cc(C(F)(F)F)cc(C(F)(F)F)c2)[C@@H]1C` [anacetrapib], for which, in series [2] (setting [5]), the “decrease of LDL-C” value is given as 40% and the “increase of HDL-C” value was 138%. For the same compound, the increase in mortality entry in series [2] (patients treated with anacetrapib, DEFINE trial) is “unlikely”.

Take `COc1ccc(-c2ccc(C(=O)O)cc2C)cc1-c1ccc(C(F)(F)F)cc1[C@@H]1CC[C@H]2[C@@H](c3ccnc(C(F)(F)F)c3)SC(=O)N12` [Example 9, 4′-methoxy-2-methyl-2″-{(1R,5S,7aS)-3-oxo-1-[2-(trifluoromethyl)pyridin-4-yl]tetrahydro-1H-pyrrolo[1,2-c][1,3]thiazol-5-yl}-4″-(trifluoromethyl)-1,1′:3′,1″-terphenyl-4-carboxylic acid]: in series [3], the IC50 is 1990 nM.

In the case of `COc1ncc(-c2c(C)cc(C(=O)O)cc2C)cc1-c1ccc(C(F)(F)F)cc1[C@@H]1CC[C@H]2[C@@H](c3cc(C(F)(F)F)cc(C(F)(F)F)c3)SC(=O)N12` [Example 3, 4-{5-[2-{(1R,5S,7aS)-1-[3,5-bis(trifluoromethyl)phenyl]-3-oxotetrahydro-1H-pyrrolo[1,2-c][1,3]thiazol-5-yl}-4-(trifluoromethyl)phenyl]-6-methoxypyridin-3-yl}-3,5-dimethylbenzoic acid], the IC50 in series [3] was 164 nM.

On to `COc1ncc(-c2ccc(C(=O)O)cc2C)cc1-c1ccc(C(F)(F)F)cc1[C@@H]1CC[C@H]2[C@@H](c3cc(C(F)(F)F)cc(C(F)(F)F)c3)CC(=O)N12` [Example 16, 4-{5-[2-{(3S,7R,7aS)-7-[3,5-bis(trifluoromethyl)phenyl]-5-oxohexahydro-1H-pyrrolizin-3-yl}-4-(trifluoromethyl)phenyl]-6-methoxypyridin-3-yl}-3-methylbenzoic acid], for which the concentration for half-maximal inhibition (IC50) in series [3] was 2940 nM.

With `CCC(CC)CC1(C(=O)Nc2ccccc2SC(=O)C(C)C)CCCCC1` [dalcetrapib], the “clinical benefit (interim data)” value in series [4] (terminated early) is reported as “did not show a clinical benefit”. Further, the safety issues result in series [4] is listed as “no safety issues detected”.
